≈ marks a conversion by molar mass, not a printed value.
Test system: P-388 mouse leukemia cells
Assay: P388 mouse leukemia cell cytotoxicity assay (24-well plate screening / tube assay)
Type: cell-based
Details: for concentration inhibiting cell growth relative to the concentration required for inhibition by chondrillin (composition 1): 50% inhibition stated for II/2 and III/3, P388 mouse leukemia cells; for IC50: P388, P-388 mouse leukemia cells, 48 hours incubation, 5% CO2, read-out: P388 IC50, Inhibiting concentration 50% of cell growth; for antitumor activity ranking among the compositions tested: Table 2, P388, result in words; for cytotoxic in vitro against P-388 murine leukemia cells: result in words
From the text: The following assay method was utilized to illustrate the antitumor effectiveness of the compositions of Formulae II - VI corresponding to compositions 2-5 of the examples. Data is also provided for the chondrillin composition (1) which has also been isolated according to the process of the invention.
388 MOUSE LEUKEMIA CELL CYTOXICITY ASSAY 24-WELL PLATE SCREENING ASSAY AND TUBE ASSAY PROTOCOL
Media--Dulbeccos with glucose and pyruvate (Biologos, Inc) with 10% horse serum, (Biologos, Inc) and 1.0 ug/ml gentamicin (Gibco).
Cells - P-388 mouse leukemia cells (American Type Culture Collection) in media at a concentration of 5×10^4 W cells/ml Sterile 24-well culture plates (Nunc) for screening or 12×75 mm glass culture tubes (Becton-Dickinson) for tube assay. Microdispenser with 1 to 5 ul increments (Drummond Scientific Co. Broomall PA).
Finnpipette with 5 to 50 μl increments and Finnpipette with 50 to 200 μl increments.
1. A sample of the composition to be assayed is added to each well or tube in an amount of from 200 ug/ml and 100 ug/ml for screening. For DDC of known active compounds use log concentrations from 100 ug/ml to 0.01 ug/ml for range-finding assay; when range has been determined, use five concentrations between highest and lowest active concentrations.
2. Add 2.0 ml of 5×10^4 cell suspension in media to each well or tube. Tubes are loosely covered with parafilm.
3 Incubate in 5% CO2 incubator 48 hours.
4. Visually read plates with inverted microscope, comparing with solvent control. Assign activity as follows:
Repeat all positive samples using tube assay.
5. For Tube assays--Mix tube well on vortex and remove 0.5 ml aliquot and add to 9.5 ml of diluent fluid (Isoton - Coulter) in Accuvette (Coulter) and mix well by inversion immediately before counting, taking care not to produce excessive bubbles. Count on Coulter Counter (Counter is set to count 0.5 ml of the solution; therefore counts may be converted to cell/ml in original assay tube by multiplying count by 40.
Positive control--Vinblastine or Vincristine in aqueous solution.
Always run a solvent control in duplicate in the last two wells of each plate or four tubes for each rack of 72 or less tubes. Also run four wells or tubes with media and cells only per run of plates or tubes. When using volumes of aqueous solutions greater than 200 μl, dry sample and bring up to desired concentration in media.
Compositions 1-5 of formulae I/1; II/2; III/3; IV/4; and V/5 are cytotoxic in vitro against P-388 murine leukemia cells.

| Structure (SMILES) | concentration inhibiting cell growth relative to the concentration required for inhibition by chondrillin (composition 1) [%] | IC50 [mg/L] | antitumor activity ranking among the compositions tested | cytotoxic in vitro against P-388 murine leukemia cells |
| --- | --- | --- | --- | --- |
| CC=CC=CCCCCCCC[C@]1(OC)C=C[C@@H](CC(=O)OC)OO1 (relative stereo) [Composition II/2] | 1 | 0.05 (≈ 0.142 µM) | greatest antitumor activity of the compositions tested | cytotoxic |
| CCCCCCCCCCCC[C@]1(OC)C=C[C@@H](CC(=O)OC)OO1 (relative stereo) [Composition III/3] | 1 | 0.05 (≈ 0.14 µM) | greatest antitumor activity of the compositions tested | cytotoxic |
| CC=CC=CCCCCCCCCC[C@]1(OC)C=C[C@@H](CC(=O)OC)OO1 (relative stereo) [Composition IV/4] | 2 | 0.1 (≈ 0.263 µM) |  | cytotoxic |
| CC=CCCCCCCCCC[C@]1(OC)C=C[C@@H](CC(=O)OC)OO1 (relative stereo) [Composition V/5] | 2 | 0.1 (≈ 0.282 µM) |  | cytotoxic |
| CCCCCCCCCCCCCCCCC1(OC)C=CC(CC(=O)OC)OO1 (stereo not shown) [Composition I/1, chondrillin, reference compound] |  | 5 (≈ 12.1 µM) |  | cytotoxic |

— patent publication US4731377A, “Antitumor cyclic peroxides” (Harbor Branch Oceanographic Institute, Inc., priority 1986, dated 1988)
